Assay results as given in ChEMBL document CHEMBL1828558, “Discovery of (+)-N-(3-aminopropyl)-N-[1-(5-benzyl-3-methyl-4-oxo-[1,2]thiazolo[5,4-d]pyrimidin-6-yl)-2-methylpropyl]-4-methylbenzamide (AZD4877), a kinesin spindle protein inhibitor and potential anticancer agent” (J Med Chem, 2011).

How the values were obtained:
[1] = molecular target: Cytochrome P450 2C9 (Homo sapiens, UniProt P11712); test: Inhibition of human recombinant CYP2C9; format: ADME
[2] = molecular target: T1, Kinesin-1 heavy chain (Homo sapiens, UniProt P33176); test: Inhibition of human GST-conventional kinesin ATPase activity after 20 mins by malachite green assay
T1 sequence (P33176 whole entry): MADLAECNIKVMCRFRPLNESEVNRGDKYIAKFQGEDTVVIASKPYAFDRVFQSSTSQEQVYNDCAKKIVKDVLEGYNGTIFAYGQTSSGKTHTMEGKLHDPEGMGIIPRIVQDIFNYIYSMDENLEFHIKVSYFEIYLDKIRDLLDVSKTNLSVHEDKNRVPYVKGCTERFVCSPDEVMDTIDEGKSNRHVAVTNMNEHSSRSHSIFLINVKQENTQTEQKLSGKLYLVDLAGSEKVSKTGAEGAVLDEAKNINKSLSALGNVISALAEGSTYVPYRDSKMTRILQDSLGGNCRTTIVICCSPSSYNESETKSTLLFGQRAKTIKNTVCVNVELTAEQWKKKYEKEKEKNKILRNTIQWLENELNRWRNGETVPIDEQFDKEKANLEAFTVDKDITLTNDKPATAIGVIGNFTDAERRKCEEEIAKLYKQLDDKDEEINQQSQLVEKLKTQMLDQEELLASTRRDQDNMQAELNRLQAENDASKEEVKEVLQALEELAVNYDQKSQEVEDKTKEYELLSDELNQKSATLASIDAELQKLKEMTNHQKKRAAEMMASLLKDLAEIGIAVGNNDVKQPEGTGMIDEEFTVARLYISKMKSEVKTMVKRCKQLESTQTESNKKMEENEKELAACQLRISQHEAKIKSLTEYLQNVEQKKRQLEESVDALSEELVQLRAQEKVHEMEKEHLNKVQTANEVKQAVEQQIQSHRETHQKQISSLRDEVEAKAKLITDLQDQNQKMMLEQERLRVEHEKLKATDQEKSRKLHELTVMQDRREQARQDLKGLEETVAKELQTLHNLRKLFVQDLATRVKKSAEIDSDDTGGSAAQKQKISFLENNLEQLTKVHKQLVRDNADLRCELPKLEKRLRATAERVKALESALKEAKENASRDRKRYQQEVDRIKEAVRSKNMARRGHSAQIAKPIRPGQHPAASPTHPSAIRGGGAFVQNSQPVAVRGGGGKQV

[3] = system: Liver microsomes; test: Intrinsic clearance in Wistar rat liver microsomes at 2 uM; format: ADME, Microsome
[4] = molecular target: T2, Kinesin-like protein KIF11 (Homo sapiens, UniProt P52732); test: Inhibition of human recombinant C-terminal His6-tagged KSP ATPase activity after 1 hr by malachite green assay
T2 sequence (P52732 whole entry): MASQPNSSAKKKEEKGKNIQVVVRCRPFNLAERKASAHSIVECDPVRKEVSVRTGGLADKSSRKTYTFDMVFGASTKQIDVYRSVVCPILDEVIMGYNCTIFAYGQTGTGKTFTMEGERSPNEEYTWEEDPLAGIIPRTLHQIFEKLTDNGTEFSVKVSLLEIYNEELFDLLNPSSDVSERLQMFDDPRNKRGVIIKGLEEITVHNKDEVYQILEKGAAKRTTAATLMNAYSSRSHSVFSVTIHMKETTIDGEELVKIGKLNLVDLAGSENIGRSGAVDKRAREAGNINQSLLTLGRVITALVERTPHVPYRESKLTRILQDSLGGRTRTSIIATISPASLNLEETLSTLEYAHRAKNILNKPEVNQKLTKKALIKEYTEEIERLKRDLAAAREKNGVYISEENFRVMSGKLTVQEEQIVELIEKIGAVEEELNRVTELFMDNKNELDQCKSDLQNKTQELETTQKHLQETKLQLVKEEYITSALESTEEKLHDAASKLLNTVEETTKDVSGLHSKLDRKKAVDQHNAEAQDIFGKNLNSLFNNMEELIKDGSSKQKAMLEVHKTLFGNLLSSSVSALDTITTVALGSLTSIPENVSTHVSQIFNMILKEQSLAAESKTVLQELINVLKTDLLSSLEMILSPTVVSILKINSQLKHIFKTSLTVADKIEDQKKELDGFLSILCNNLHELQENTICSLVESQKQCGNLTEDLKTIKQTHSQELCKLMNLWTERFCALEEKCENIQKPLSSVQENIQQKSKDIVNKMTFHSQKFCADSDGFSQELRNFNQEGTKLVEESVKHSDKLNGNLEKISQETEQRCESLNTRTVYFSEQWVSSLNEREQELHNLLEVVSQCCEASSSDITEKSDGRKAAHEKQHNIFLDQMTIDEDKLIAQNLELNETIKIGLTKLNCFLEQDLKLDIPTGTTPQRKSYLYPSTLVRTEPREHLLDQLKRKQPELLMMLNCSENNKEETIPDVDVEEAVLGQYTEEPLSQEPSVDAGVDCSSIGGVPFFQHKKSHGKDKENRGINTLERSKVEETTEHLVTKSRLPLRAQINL

[5] = AUC (infinity) in Wistar rat at 6 mg/kg, iv administered as a single bolus dose; format: ADME, organism-based; set-up: time infinity, dose 6 mg/kg, route intravenous; settings: plasma
[6] = Plasma protein binding in Wistar rat; format: ADME, cell-free; settings: read-out: PPB (converted)
[7] = system: COLO 205; test: Anticancer activity against human COLO205 cells after 72 hrs by MTS/PMS assay; format: functional, cell-based; settings: colo 205
[8] = Clearance in Wistar rat; format: ADME, organism-based; settings: in vivo
[9] = Plasma protein binding in human; format: ADME, cell-free; settings: read-out: PPB (converted)
[10] = Volume of distribution at steady state in Wistar rat at 6 mg/kg, iv administered as a single bolus dose; format: ADME, organism-based; set-up: dose 6 mg/kg, route intravenous; settings: in vivo, read-out: Vdss
[11] = Volume of distribution in rat at 1 and 5 mg/kg, iv administered as bolus dose; format: ADME, organism-based; set-up: dose 5 mg/kg, route intravenous; settings: in vivo
[12] = molecular target: Cytochrome P450 2C19 (Homo sapiens, UniProt P33261); test: Inhibition of human recombinant CYP2C19; format: ADME
[13] = system: Rattus norvegicus; test: Hepatic blood flow in rat at 1 and 5 mg/kg, iv administered as bolus dose; format: ADME, organism-based, Liver; set-up: dose 5 mg/kg, route intravenous; settings: in vivo
[14] = Binding affinity to sodium channel in guinea pig atria by radioligand displacement assay; set-up: species or system Cavia porcellus
[15] = system: Liver; test: Intrinsic clearance in Wistar rat hepatocytes at 2 uM; format: ADME, cell-based, Hepatocyte
[16] = Clearance in Wistar rat at 6 mg/kg, iv administered as a single bolus dose; format: ADME, organism-based; set-up: dose 6 mg/kg, route intravenous; settings: in vivo

Chain of Cytochrome P450 2C9 (P11712 whole entry): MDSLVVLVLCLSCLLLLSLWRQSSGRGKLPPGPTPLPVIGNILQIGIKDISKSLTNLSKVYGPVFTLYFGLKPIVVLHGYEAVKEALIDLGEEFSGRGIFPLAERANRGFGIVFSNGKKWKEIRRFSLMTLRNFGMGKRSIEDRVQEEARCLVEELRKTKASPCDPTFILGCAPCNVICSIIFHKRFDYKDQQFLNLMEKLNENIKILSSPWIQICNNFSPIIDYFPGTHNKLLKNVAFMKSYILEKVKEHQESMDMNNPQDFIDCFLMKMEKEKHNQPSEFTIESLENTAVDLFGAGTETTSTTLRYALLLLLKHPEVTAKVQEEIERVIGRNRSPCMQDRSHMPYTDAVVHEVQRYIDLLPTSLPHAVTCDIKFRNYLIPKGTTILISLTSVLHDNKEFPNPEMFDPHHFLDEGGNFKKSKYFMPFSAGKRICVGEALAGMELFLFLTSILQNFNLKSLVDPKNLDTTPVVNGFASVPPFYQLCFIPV
Chain of Cytochrome P450 2C19 (P33261 whole entry): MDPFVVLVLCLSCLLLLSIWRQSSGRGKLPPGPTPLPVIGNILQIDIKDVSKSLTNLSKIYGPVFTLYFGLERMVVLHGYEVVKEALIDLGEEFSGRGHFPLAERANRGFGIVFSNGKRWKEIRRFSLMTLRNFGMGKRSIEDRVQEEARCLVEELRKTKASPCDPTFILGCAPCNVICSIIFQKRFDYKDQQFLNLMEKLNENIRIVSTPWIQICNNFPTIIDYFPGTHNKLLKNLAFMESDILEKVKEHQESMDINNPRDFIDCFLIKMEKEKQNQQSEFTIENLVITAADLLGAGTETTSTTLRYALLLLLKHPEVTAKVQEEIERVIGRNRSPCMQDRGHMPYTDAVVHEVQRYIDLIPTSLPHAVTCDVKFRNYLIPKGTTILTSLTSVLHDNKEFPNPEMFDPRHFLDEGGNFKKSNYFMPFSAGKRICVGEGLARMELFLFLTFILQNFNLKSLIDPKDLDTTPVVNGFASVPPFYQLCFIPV

- IC50 [1]: > 10 µM
- IC50 [2]: > 100 µM
- clearance [3]: < 10 µL/min/mg
- IC50 [4]: 0.002 µM
- AUC(0-inf) [5]: 2840 ng·h/mL
- fraction unbound [6]: 0.044
- IC50 [7]: 0.003 µM
- clearance [8]: 36 mL/min/kg
- fraction unbound [9]: 0.046
- Vd [10]: 10 L/kg
- Vd [11]: 10 L/kg
- IC50 [12]: > 10 µM
- QH [13]: 50%
- IC50 [14]: > 30 µM
- CL [15]: 4 µL/min
- clearance [16]: 36 mL/min/kg
SMILES: Cc1ccc(C(=O)N(CCCN)C(c2nc3snc(C)c3c(=O)n2Cc2ccccc2)C(C)C)cc1 (single isomer, unassigned; (+)) [AZD-4877]
